Where a SMILES comes first, the peptide text is derived from it. Where no end group is shown, it is not given here.
Legend:
[1] = system: keratinocyte cell line HaCaTs; experiment: Intracellular calcium influx in keratinocyte cell line HaCaTs; format: cell-based, human; details: in presence of T30, FIG. 2
Text: As described in the examples, the inventors performed intracellular calcium imaging and cell proliferation assays on the keratinocyte cell line, HaCaTs, a widely used and characterized model for human keratinocytes.
The inventors examined the ability of the acetylcholinesterase-derived linear peptides, T30 and T15, and the cyclic peptide NBP-14, to induce intracellular calcium influx into the keratinocyte cell line, and the results are shown in FIG. 2.

HaCaT cell line = experiment: Cell viability (cell toxicity) in HaCaT cell line; format: cell-based, human; details: FIG. 3A
Text: The inventors next examined the ability of the acetylcholinesterase-derived peptides, T30 and T15, to induce proliferation of the HaCaT cell line and also tested cell viability to determine cell toxicity of NBP-14, T15 and T30 to the HaCaT cell line.

Row | Molecule | inhibition of T30-induced intracellular calcium influx [1] | cell viability / cytotoxic effects (HaCaT cell line)
1 | CSCC[C@@H]1NC(=O)[C@H](Cc2ccc(O)cc2)NC(=O)[C@H](CO)NC(=O)[C@H](CO)NC(=O)[C@H](Cc2c[nH]c3ccccc23)NC(=O)[C@H](CCCNC(=N)N)NC(=O)[C@H](Cc2c[nH]cn2)NC(=O)[C@H](Cc2ccccc2)NC(=O)[C@H](CCC(=O)O)NC(=O)[C@H](C)NC(=O)[C@H](CCCCN)NC(=O)[C@H](Cc2c[nH]c3ccccc23)NC(=O)[C@H](Cc2c[nH]cn2)NC(=O)[C@H](C(C)C)NC1=O [NBP-14] (cyclo(AEFHRWSSYMVHWK)) | significantly inhibit the effects of T30 | do not show induced significant cytotoxic effects
2 | NQFDHYSKQDRCSDL [T15] |  | do not show induced significant cytotoxic effects
3 | KAEFHRWSSYMVHWKNQFDHYSKQDRCSDL [T30] |  | do not show induced significant cytotoxic effects

From patent US20240207373A1, “CYCLIC PEPTIDES FROM THE C-TERMINUS OF ACETYLCHOLINESTERASE FOR TREATMENT OF SKIN DISORDERS AND FOR COSMETICAL USE” (priority 2020, published 2024)
